Measurements from patent US11377442B2, “Small molecule agonists and antagonists of NR2F6 activity” (ZANDER THERAPEUTICS, INC., priority 2016, dated 2022).
Where two headings read alike, the source gives them in different places.

Assays:
Assay type in all cases: cell-based
HEK293 pGL4 = experiment: Firefly_pGL signal, cmpd/DMSO (pGL4 control cells); conditions: Homo sapiens
NR2F6 = biological target: T1, NR2F6 (Homo sapiens, UniProt P10588); experiment: NR2F6 agonist screening, Firefly signal cmpd/DMSO
T1 construct: expressed in transfected cells; also transient transfection
T1 sequence (P10588 1-404): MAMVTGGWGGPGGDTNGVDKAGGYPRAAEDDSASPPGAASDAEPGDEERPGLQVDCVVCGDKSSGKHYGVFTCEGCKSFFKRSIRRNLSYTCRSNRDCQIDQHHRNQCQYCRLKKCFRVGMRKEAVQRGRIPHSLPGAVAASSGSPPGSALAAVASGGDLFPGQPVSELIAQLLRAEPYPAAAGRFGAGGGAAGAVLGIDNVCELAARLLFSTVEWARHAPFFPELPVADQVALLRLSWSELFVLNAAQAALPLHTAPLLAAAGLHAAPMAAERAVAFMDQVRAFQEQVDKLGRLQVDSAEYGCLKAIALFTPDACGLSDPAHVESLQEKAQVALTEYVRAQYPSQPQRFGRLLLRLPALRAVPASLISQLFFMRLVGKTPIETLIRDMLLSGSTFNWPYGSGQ

Renilla = Renilla signal in NR2F6 agonist screening, cmpd/DMSO; conditions: Renilla, F4
NR2F6 LBD = biological target: T2, NR2F6 LBD (Homo sapiens, UniProt P10588); experiment: NR2F6 LBD transient transfection; conditions: LBD
T2 construct: expressed in transfected cells
T2 sequence (P10588 165-393 limits assumed): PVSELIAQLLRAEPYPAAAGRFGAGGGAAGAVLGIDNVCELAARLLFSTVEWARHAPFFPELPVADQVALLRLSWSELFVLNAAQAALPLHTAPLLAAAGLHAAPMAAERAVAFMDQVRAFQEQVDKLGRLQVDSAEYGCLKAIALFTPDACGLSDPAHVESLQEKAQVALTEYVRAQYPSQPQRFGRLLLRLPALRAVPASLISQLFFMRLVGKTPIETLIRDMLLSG
How it was run: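 LBD-transfected cells treated at 40, 10, 2 and 0.5 μM (4 replicates); cytotoxicity measured in parallel, normalized to DMSO (0%) and zero signal (100%). Higher concentrations excluded where signal loss reflected toxicity.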

[1] = read-out: Renilla, F4, cmpd/DMSO (mean)
[2] = 1% FBS, read-out: Renilla, F4, 1% FBS, cmpd/DMSO (mean)
[3] = 10% FBS, read-out: Renilla, F4, 10% FBS, cmpd/DMSO (mean)

CC(C)N[C@H]1CS(=O)(=O)C[C@@H]1S(=O)(=O)c1ccc(Cl)cc1 [Compound D118]
fold induction at 0.5 µM (HEK293 pGL4; HEK293, 0.5 uM, pGL4, read-out: Firefly pGL4, cmpd/DMSO (mean)): 1.2
fold induction at 2 µM (HEK293 pGL4; HEK293, 2 uM, pGL4, read-out: Firefly pGL4, cmpd/DMSO (mean)): 1.5
fold induction at 10 µM (HEK293 pGL4; HEK293, 10 uM, pGL4, read-out: Firefly pGL4, cmpd/DMSO (mean)): 4.8
fold induction at 40 µM (HEK293 pGL4; HEK293, 40 uM, pGL4, read-out: Firefly pGL4, cmpd/DMSO (mean)): 0.4
fold induction at 0.5 µM (HEK293 pGL4; HEK293, pGL4, 1% FBS, 0.5 uM, read-out: Firefly, pGL4, 1% FBS, cmpd/DMSO (mean)): 0.9
fold induction at 2 µM (HEK293 pGL4; HEK293, pGL4, 1% FBS, 2 uM, read-out: Firefly, pGL4, 1% FBS, cmpd/DMSO (mean)): 1.2
fold induction at 10 µM (HEK293 pGL4; HEK293, pGL4, 1% FBS, 10 uM, read-out: Firefly, pGL4, 1% FBS, cmpd/DMSO (mean)): 2.1
fold induction at 40 µM (HEK293 pGL4; HEK293, pGL4, 1% FBS, 40 uM, read-out: Firefly, pGL4, 1% FBS, cmpd/DMSO (mean)): 0.9
fold induction at 0.5 µM (HEK293 pGL4; HEK293, pGL4, 10% FBS, 0.5 uM, read-out: Firefly, pGL4, 10% FBS, cmpd/DMSO (mean)): 1.2
fold induction at 2 µM (HEK293 pGL4; HEK293, pGL4, 10% FBS, 2 uM, read-out: Firefly, pGL4, 10% FBS, cmpd/DMSO (mean)): 1.2
fold induction at 10 µM (HEK293 pGL4; HEK293, pGL4, 10% FBS, 10 uM, read-out: Firefly, pGL4, 10% FBS, cmpd/DMSO (mean)): 2.9
fold induction at 40 µM (HEK293 pGL4; HEK293, pGL4, 10% FBS, 40 uM, read-out: Firefly, pGL4, 10% FBS, cmpd/DMSO (mean)): 8.1
Firefly F4, cmpd/DMSO (mean) (NR2F6; 0.5 uM): 1.6
Firefly F4, cmpd/DMSO (mean) (NR2F6; 2 uM): 1.6
Firefly F4, cmpd/DMSO (mean) (NR2F6; 10 uM): 6.2
Firefly F4, cmpd/DMSO (mean) (NR2F6; 40 uM): 2.4
F4, Firefly/Renilla for S/B(F4) > 3 (NR2F6; 1% FBS, 10 uM): 3.2
Firefly, F4/pGL4 for S/B(F4) > 3 (NR2F6; 1% FBS, 10 uM): 2.5
F4, Firefly/Renilla for S/B(F4) > 3 (NR2F6; 10% FBS, 10 uM): 2.1
Firefly, F4/pGL4 for S/B(F4) > 3 (NR2F6; 10% FBS, 10 uM): 1.8
F4, Firefly/Renilla for S/B(F4) > 3 (NR2F6; 10% FBS, 40 uM): 2.8
Firefly, F4/pGL4 for S/B(F4) > 3 (NR2F6; 10% FBS, 40 uM): 1.8
Firefly, F4, 1% FBS, cmpd/DMSO (mean) (NR2F6; 1% FBS, 0.5 uM): 1.1
Firefly, F4, 1% FBS, cmpd/DMSO (mean) (NR2F6; 1% FBS, 2 uM): 1.4
Firefly, F4, 1% FBS, cmpd/DMSO (mean) (NR2F6; 1% FBS, 10 uM): 5.2
Firefly, F4, 1% FBS, cmpd/DMSO (mean) (NR2F6; 1% FBS, 40 uM): 0.5
Firefly, F4, 10% FBS, cmpd/DMSO (mean) (NR2F6; 10% FBS, 0.5 uM): 1.2
Firefly, F4, 10% FBS, cmpd/DMSO (mean) (NR2F6; 10% FBS, 2 uM): 1.3
Firefly, F4, 10% FBS, cmpd/DMSO (mean) (NR2F6; 10% FBS, 10 uM): 5.1
Firefly, F4, 10% FBS, cmpd/DMSO (mean) (NR2F6; 10% FBS, 40 uM): 15
fold induction at 0.5 µM (Renilla; [1]): 1.1
fold induction at 2 µM (Renilla; [1]): 1.3
fold induction at 10 µM (Renilla; [1]): 1.7
fold induction at 40 µM (Renilla; [1]): 1.9
fold induction at 0.5 µM (Renilla; [2]): 1
fold induction at 2 µM (Renilla; [2]): 1.1
fold induction at 10 µM (Renilla; [2]): 1.6
fold induction at 40 µM (Renilla; [2]): 2.3
fold induction at 0.5 µM (Renilla; [3]): 1.2
fold induction at 2 µM (Renilla; [3]): 1.5
fold induction at 10 µM (Renilla; [3]): 2.5
fold induction at 40 µM (Renilla; [3]): 5.2
Firefly LBD, cmpd/DMSO (mean) (NR2F6 LBD; 0.5 uM): 1.2
Firefly LBD, cmpd/DMSO (mean) (NR2F6 LBD; 2 uM): 1.8
Firefly LBD, cmpd/DMSO (mean) (NR2F6 LBD; 10 uM): 3.8
Firefly LBD, cmpd/DMSO (mean) (NR2F6 LBD; 40 uM): 0.4
